{"source": "patent US7618656B2", "about": "“Method for use of lanthanum carbonate pharmaceutical compositions” (Shire International Licensing B.V., priority 2006, dated 2009)", "assay": "Attempted conversion of polymorph (II) to polymorph (I) by heating in water", "type": "physicochemical", "details": "18 days at 90-100° C.", "from_the_text": "An attempt was made to convert polymorph (II) to polymorph (I) by heating in water for an extended period of time.", "data": [{"molecule": "O=C([O-])[O-].[La+3].[OH-]", "note": "[polymorph (II), lanthanum hydroxycarbonate]", "values": [{"measurement": "conversion of polymorph (II) to polymorph (I) (polymorph stability)", "value": "No evidence of conversion"}]}]}
